Patent US7041698B2, “Hepatitis C virus inhibitors” (Bristol-Myers Squibb Company, priority 2002, dated 2006)
pEC50, pIC50: −log10 of the molar value.

How the values were obtained:
[1] = target: T1, HCV NS3/4A protease complex (UniProt P27958, C1454S/C1711G, species not given); assay: Recombinant HCV NS3/4A protease complex FRET peptide assay (strain not stated); format: biochemical; conditions: HCV NS3/4A protease enzyme assay, read-out: IC50 range
T1 construct: fused on or other part: Three-lysine solubilising tail at the C-terminus of NS4A

[2] = system: HCV replicon in Huh7 cells; assay: HCV replicon cell-based assay; set-up: species or system HCV strain 1B; conditions: Hepatitis C virus, Huh-7, 96 h, HCV replicon, 4 days, read-out: EC50 range
How it was run: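 Huh7 cells carrying a genotype 1b subgenomic replicon (NS3-NS5B, neo) treated 4 days at 37° C with compound (0.5% DMSO final). NS3 protease activity read in lysates with 10 μM FRET peptide (340/490 nm, kinetic), giving EC50. Confirmed by Taqman qRT-PCR of HCV RNA and a Renilla luciferase replicon.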

**Q.** With `C=CC1C[C@]1(NC(=O)[C@@H]1C[C@@H](OC(=O)Nc2cccc(OC)c2)CN1C(=O)[C@@H](NC(=O)OC(C)(C)C)C(C)(C)C)C(=O)NS(=O)(=O)C1CC1` (stereo partly drawn) [Compound 27, BocNH-P3(t-BuGly)-P2(Hyp(O—CO(NH—(3-methoxy-phenyl))))-P1(1R,2S VinylAcca)—CONHSO2Cyclopropane] as the molecule, how does the pIC50 [1] read?
**A.** The pIC50 was > 7.00.

**Q.** And the pEC50 [2]?
**A.** Its pEC50 is 5.00 to 6.00.

**Q.** How did the pIC50 [1] turn out when `C=CC1C[C@]1(NC(=O)[C@@H]1C[C@@H](OC(=O)Nc2ccccc2Oc2ccccc2)CN1C(=O)[C@@H](NC(=O)OC(C)(C)C)C(C)(C)C)C(=O)NS(=O)(=O)C1CC1` (stereo partly drawn) [Compound 67, BocNH-P3(t-BuGly)-P2(Hyp(O—CO(NH—(2-phenoxy-phenyl))))-P1(1R,2S VinylAcca)—CONHSO2Cyclopropane] was run?
**A.** The pIC50 was > 7.00.

**Q.** And the pEC50 [2]?
**A.** The pEC50 was 6.00 to 7.00.

**Q.** With `C=CC1C[C@]1(NC(=O)[C@@H]1C[C@@H](OC(=O)Nc2cc(C(C)=O)ccc2N2CCCCC2)CN1C(=O)[C@@H](NC(=O)OC(C)(C)C)C(C)(C)C)C(=O)NS(=O)(=O)C1CC1` (stereo partly drawn) [Compound 80, BocNH-P3(t-BuGly)-P2(Hyp(O—CO(NH-1-(2-piperidino-5-acetylphenyl))))-P1(1R,2S VinylAcca)—CONHSO2Cyclopropane] as the molecule, how does the pIC50 [1] read?
**A.** Its pIC50 is > 7.00.

**Q.** And the pEC50 [2]?
**A.** The pEC50 was > 7.00.

**Q.** How did the pIC50 [1] turn out when `C=CC1C[C@]1(NC(=O)[C@@H]1C[C@@H](OC(=O)Nc2nc(Cl)c(Cl)nc2C(=O)OC)CN1C(=O)[C@@H](NC(=O)OC(C)(C)C)C(C)(C)C)C(=O)NS(=O)(=O)C1CC1` (stereo partly drawn) [Compound 35, BocNH-P3(t-BuGly)-P2(Hyp(O—CO(NH-3-(5,6-Dichloro-pyrazine-2-carboxylic acid methyl ester))))-P1(1R,2S VinylAcca)—CONHSO2Cyclopropane] was run?
**A.** The pIC50 was > 7.00.

**Q.** And the pEC50 [2]?
**A.** Its pEC50 is < 5.00.

**Q.** `C=CC1C[C@]1(NC(=O)[C@@H]1C[C@@H](OC(=O)Nc2c(Cl)cccc2Cl)CN1C(=O)[C@@H](NC(=O)OC(C)(C)C)C(C)(C)C)C(=O)NS(=O)(=O)C1CC1` (stereo partly drawn) [Compound 54, BocNH-P3(t-BuGly)-P2(Hyp(O—CO(NH—(2,6-dichloro-phenyl))))-P1(1R,2S VinylAcca)—CONHSO2Cyclopropane] was tested. Which pIC50 [1] did it give?
**A.** The pIC50 was 6.00 to 7.00.

**Q.** And the pEC50 [2]?
**A.** Its pEC50 is 5.00 to 6.00.

**Q.** With `C=CC1C[C@]1(NC(=O)[C@@H]1C[C@@H](OC(=O)Nc2ccccc2-c2ccc(C)o2)CN1C(=O)[C@@H](NC(=O)OC(C)(C)C)C(C)(C)C)C(=O)NS(=O)(=O)C1CC1` (some centres unmarked) [Compound 81] as the molecule, how does the pIC50 [1] read?
**A.** The pIC50 was > 7.00.

**Q.** What about the pEC50 [2] of the same molecule?
**A.** The pEC50 was > 7.00.

**Q.** How did the pIC50 [1] turn out when `C=CC1C[C@]1(NC(=O)[C@@H]1C[C@@H](OC(=O)Nc2cc(Cl)ccc2OC)CN1C(=O)[C@@H](NC(=O)OC(C)(C)C)C(C)(C)C)C(=O)NS(=O)(=O)C1CC1` (stereo partly drawn) [Compound 9, BocNH-P3(t-BuGly)-P2(Hyp(O—CO(NH—(5-chloro-2-methoxy-phenyl))))-P1(1R,2S VinylAcca)—CONHSO2Cyclopropane] was run?
**A.** Its pIC50 is > 7.00.

**Q.** What about the pEC50 [2] of the same molecule?
**A.** Its pEC50 is 6.00 to 7.00.

**Q.** `C=CC1C[C@]1(NC(=O)[C@@H]1C[C@@H](OC(=O)Nc2cc(Cl)ccc2C)CN1C(=O)[C@@H](NC(=O)OC(C)(C)C)C(C)(C)C)C(=O)NS(=O)(=O)C1CC1` (stereo partly drawn) [Compound 20, BocNH-P3(t-BuGly)-P(Hyp(O—CO(NH—(5-chloro-2-methyl-phenyl))))-P1(1R,2S VinylAcca)—CONHSO2Cyclopropane] was tested. Which pIC50 [1] did it give?
**A.** The pIC50 was > 7.00.

**Q.** What about the pEC50 [2] of the same molecule?
**A.** The pEC50 was 5.00 to 6.00.

**Q.** `C=CC1C[C@]1(NC(=O)[C@@H]1C[C@@H](OC(=O)Nc2cc([N+](=O)[O-])ccc2C)CN1C(=O)[C@@H](NC(=O)OC(C)(C)C)C(C)(C)C)C(=O)NS(=O)(=O)C1CC1` (stereo partly drawn) [Compound 15, BocNH-P3(t-BuGly)-P2(Hyp(O—CO(NH—(2-methyl-5-nitro-phenyl))))-P1(1R,2S VinylAcca)—CONHSO2Cyclopropane] was tested. Which pIC50 [1] did it give?
**A.** Its pIC50 is > 7.00.

**Q.** What about the pEC50 [2] of the same molecule?
**A.** The pEC50 was 5.00 to 6.00.

**Q.** `C=CC1C[C@]1(NC(=O)[C@@H]1C[C@@H](OC(=O)Nc2ccccc2C(C)=O)CN1C(=O)[C@@H](NC(=O)OC(C)(C)C)C(C)(C)C)C(=O)NS(=O)(=O)C1CC1` (stereo partly drawn) [Compound 79, BocNH-P3(t-BuGly)-P2(Hyp(O—CO(NH—(2-acetophenone))))-P1(1R,2S VinylAcca)—CONHSO2Cyclopropane] was tested. Which pIC50 [1] did it give?
**A.** The pIC50 was > 7.00.

**Q.** What about the pEC50 [2] of the same molecule?
**A.** The pEC50 was 6.00 to 7.00.
